Results as given in patent US20230086469A1, “AUTOANTIGENIC PEPTIDES (CALVICIFIV), PRESENTED BY TOLEROGENIC DENTRITIC CELLS, USEFUL FOR THE PERSONALIZED TREATMENT OF RHEUMATOID ARTHRITIS” (UNIVERSIDAD DE CHILE, priority 2019, published 2023).

What was measured:
Format in all cases: cell-based, human
[1] = system: autologous CD4+ T cells from patients with RA; assay: Co-culture of peptide-pulsed MPLA-tDCs with autologous CFSE-stained CD4+ T cells; settings: MPLA-tDCs pulsed with peptide in comparison to mDCs, 5 days co-culture; for expression of IFN-γ by proliferating CD4+ T lymphocytes: FIG. 3A
Excerpt: FIGS. 3A-3C Modulation of antigen-specific CD4+ T cell responses by tolerogenic dendritic cells (tDCs) treated with dexamethasone and monophosphoryl lipid A (MPLA-tDCs) and pulsed with autoantigenic peptides. MPLA-tDCs and MPLA-matured DCs (mDCs), as activation control, were generated from peripheral blood monocytes of RA patients, and pulsed with previously selected peptides or mixtures of them, using a peptide derived from Aggrecan, previously described in literature, as a control peptide. Subsequently, DCs were co-cultured with autologous CFSE-stained CD4+ T cells and, after 5 days, the percentage of proliferating CD4+ T cells (CFSElo) expressing IFN-γ (FIG. 3A), L-17 (FIG. 3B) or TNF-α (FIG. 3C) was evaluated by flow cytometry. […] To compare the expression of cytokines induced by each type of DCs, a T test was performed (*p<0.05).
In order to evaluate the ability of tDCs to modulate antigen-specific CD4+ T cell responses, co-culture assays of tDCs pulsed with autoantigenic peptides and autologous CD4+ T cells from patients with RA were performed. DCs were generated from monocytes isolated from peripheral blood of patients with RA, cultured at a concentration of 2-3×10^6 cells/ml in serum-free AIM-V medium in the presence of 500 U/mL of recombinant human interleukin-4 (rhIL-4) and recombinant human […] colony stimulating factor (rhGM-CSF), for 5 days, at 37° C. and 5% CO2. […]
The effect of autoantigenic peptides to modulate effector CD4+ T cell responses of patients with RA, when are presented by tDCs generated using the protocol described in this application. […] DCs were then co-cultured with CFSE-stained CD4+ T cells and, after 5 days of culture, the percentage of proliferating CD4+T lymphocytes, expressing IFN-γ, IL-17 and TNF-α, was evaluated by flow cytometry. In each case, the percentage of decrease in the expression of proinflammatory cytokines by CD4+ T cells co-cultured with tDCs in comparison to mDCs was calculated.

[2] = system: autologous CD4+ T cells from patients with RA; assay: Co-culture of peptide-pulsed Bay-DCs with autologous CFSE-stained CD4+ T cells; settings: Bay-DCs pulsed with peptide in comparison to mDCs, 5 days co-culture; for expression of IFN-γ by CD4+ T lymphocytes: FIG. 4A; for decrease of IL-17 expression by CD4+ T lymphocytes: FIG. 4B
Excerpt: (§1) FIGS. 4A-4C. Modulation of antigen-specific CD4+ T cell responses by tDCs generated using different protocols and pulsed with autoantigenic peptides. Two different protocols were used for tDCs generation from peripheral blood monocytes of RA patients: 1) DCs treated with Bay 11-082 (Bay-DCs); and 2) DCs treated with vitamin D3, dexamethasone and LPS (VD3-DCs); mDCs were used as control. DCs were pulsed with previously selected peptides or mixtures of them, using a peptide derived from Aggrecan, as a positive control. Then, DCs were co-cultured with autologous CFSE-stained CD4+ T cells and, after 5 days, 8 the percentage of proliferating CD4+ T cells (CFSElo) expressing IFN-γ (FIG. 4A), IL-17 (FIG. 4B) or TNF-α (FIG. 4C), was evaluated by flow cytometry. The percentage of decrease in the expression of proinflammatory cytokines by CD4+ T cells co-cultured with tDCs in comparison to mDCs was calculated.
In order to evaluate the potential of autoantigenic peptides to load tolerogenic DCs generated from different protocols to modulate antigen-specific CD4+ T cell responses, co-culture assays of tDCs pulsed with autoantigenic peptides and autologous CD4+ T cells from patients with RA were performed. DCs were generated from monocytes according to the protocol described of example 2. To differentiate other tolerogenic dendritic cells types, DCs generated from monocytes were modulated with Bay-11-7982 an irreversible inhibitor of NF-κB (Bay-DCs), or modulated with Vitamin D3, dexamethasone and LPS (VD3-DCs). As control, mature DCs (mDCs) treated only with MPLA were used.
After this, the cells were pulsed with the autoantigenic peptides in the same way as an example 2, independently with the following autoantigenic peptides; 3 peptides derived from vimentin, such as Vimentin-1, Vimentin-1 citrullinated, Vimentin-2 citrullinated, or autoantigenic peptides derived from Fibrinogen, Calreticulin and Fibronectin, Aggrecan, as a positive control was used of the activation of the autologous CD4+ T cells, and un-pulsed DCs were used as a basal activation control. Besides mixtures were considered: Mix 1: Vimentin-1 and Vimentin-1 citrullinated; Mix 2: Vimentin-2 citrullinated and Calreticulin; Mix 3: Mix 1+Mix 2.
(§2) tDCs were then co-cultured with CFSE-stained CD4+ T cells and, after 5 days of culture, the percentage of proliferating CD4+T lymphocytes, expressing IFN-γ, IL-17 and TNF-α, was evaluated by flow cytometry. In each case, the percentage of decrease in the expression of proinflammatory cytokines by CD4+ T cells co-cultured with tDCs in comparison to mDCs was calculated.

[3] = system: autologous CD4+ T cells from patients with RA; assay: Co-culture of peptide-pulsed VD3-DCs with autologous CFSE-stained CD4+ T cells; settings: VD3-DCs pulsed with peptide in comparison to mDCs; 5 days co-culture; FIG. 4B
Excerpt: as §1, with “calculated. […]” for “calculated.”
as §2

| Substance | expression of IFN-γ by proliferating CD4+ T lymphocytes [1] | expression of IFN-γ by CD4+ T lymphocytes [2] | decrease of IL-17 expression by CD4+ T lymphocytes [2] | decrease of IL-17 expression by CD4+ T lymphocytes [3] | expression of TNF-α by proliferating CD4+ T lymphocytes ([1]; FIG. 3C) |
| --- | --- | --- | --- | --- | --- |
| Calreticulin | significantly reduced | significantly reduced | high percentage of decrease | high percentage of decrease | – |
| Fibrinogen | – | – | high percentage of decrease | high percentage of decrease | – |
| Fibronectin | significantly reduced | significantly reduced | – | – | significantly decrease |
